Consider six compounds from US20100022404A1, “Gene/protein marker for prediction or diagnosis of pharmacological efficacy of aurora a inhibitor” (priority 2006, published 2010).

Assay [1] deals with histone H3 (Ser10) phosphorylation. As to the kind of experiment: Histone H3 (Ser10) phosphorylation by flow cytometry in HeLa S3 cells (Example 6). The class given is cell-based, human. The conditions noted are these: FIG. 23. Here is the method: (§1) First, asynchronously-cultured HeLa S3 cells were planted in an amount of 1×10^6 cells, and incubated overnight at 37° C. in 5% CO2. At 10:00 on the next day, the medium was exchanged with a medium to which 6-((4-(3-chloro-2-fluorobenzoyl)piperazin-1-yl)methyl)-N-thiazol-2-ylpyridin-2-amine had been added to be a final concentration of 0, 30, 100, 300, 1000, 3000, 10000, 30000 nM, and then, after 8 hours and 24 hours, the cells were peeled with trypsin and collected. A half of the cells was analyzed by western blotting; ¼ of the cells were analyzed for cell cycle through flow cytometry; and the last remaining ones were analyzed for phosphorylation of histone H3 (Ser10). The cell samples processed in the same manner were analyzed for expression profiling through TaqMan-PCR.

Assay [2] concerns Aurora B (Thr232) phosphorylation. As to the kind of experiment: Western blotting of phospho-Aurora B (Thr232), Aurora B, Survivin, Plk1 in asynchronous HeLa S3 cells with Aurora A-selective inhibitor (Example 6). It is filed as cell-based, human. The conditions noted are these: for ratio of phospho-Aurora B/Aurora B: based on the compound concentration 0 nM of 1. As for the experimental part:
as §1

Assay [3] has as its system HeLa S3 cells. As to the kind of experiment: Cell cycle analysis by flow cytometry in asynchronous HeLa S3 cells with Aurora A-selective inhibitor (Example 6). It is filed as cell-based, human. The conditions noted are these: 8 hours and 24 hours, FIGS. 20, 21. As for the experimental part: as §1
Assay [4] has as its system PD marker candidate genes (BIRC5, KNTC2, PRC1, TACC3, DLG7) in HeLa-S3 cells. The assay is described as follows: Real-time PCR of PD marker candidate genes after treatment with Aurora A inhibitor (Example 2). The class given is cell-based, human. The conditions noted are these: 24 hours, FIGS. 6 to 10. Here is the method:
A predetermined concentration of 6-((4-(2,3-difluorobenzoyl)piperazin-1-yl)methyl)-N-thiazol-2-ylpyridin-2-amine was acted on HeLa-S3 cells; and after 24 hours, the cells were collected, the total RNA was isolated and then converted into cDNA, and this was processed for real-time PCR in the same manner as in Example 1.

The subject of assay [5] is Aurora B (Thr232) phosphorylation. As to the kind of experiment: Western blotting of total Aurora B and phospho-Aurora B (Thr232) in synchronized HeLa S3 cells with Aurora inhibitors (Example 7). The class given is cell-based, human. The conditions noted are these: 300 nM added 4 hours after release, sampling 0 to 24 hours, FIG. 24. As for the experimental part: First, HeLa S3 cells were synchronized at the GI/S boundary by the above-mentioned double-thymidine block, and after 4 hours from the start of release, a control (DMSO, final 0.5%), an Aurora A-selective inhibitor 6-((4-(2,3-difluorobenzoyl)piperazin-1-yl)methyl)-N-thiazol-2-ylpyridin-2-amine (in FIG. 24, this is shown as “Aurora A Inhibitor 1”), an Aurora B inhibitor ZM477439 (J. Cell. Biol., Vol. 161, p. 267, 2003) or a pan-Aurora inhibitor VX-680 was added in an amount of 300 nM, followed by sampling at regular intervals for 0 to 24 hours. Next, the samples were analyzed for total Aurora B and phospho-Aurora B (Thr232) expression by western blotting.

Assay [6] concerns histone H3 (Ser28) phosphorylation. The assay is described as follows: Western blotting of histone H3 Ser28 and Ser10 phosphorylation in asynchronous HeLa S3 cells (Example 8). It is filed as cell-based, human. The conditions noted are these: concentration series, compared with phospho-Aurora B (Thr232), FIG. 26.
For assay [7], the system named is PD marker candidate genes in rat skin. The assay is described as follows: Expression change of PD marker candidate genes in skin, continuous administration to rat (Example 4). The class given is in vivo. The conditions noted are these: same rat skin as Example 3 (intravenous drip infusion for 48 hours); FIGS. 13 to 16. Here is the method:
(§2) First, a cervical cancer strain HeLa-luc cells were subcutaneously transplanted to the back of an F344/N Jcl-rnu female nude rat. After 1 week, a […] cancer nude rat was subjected to femoral vein cannulation operation; and using a syringe pump, an Aurora A inhibitor 6-((4-(2-fluoro-3-(trifluoromethyl)benzoyl)piperazin-1-yl)methyl)-N-1H-pyrazol-3-ylpyrazin-2-amine was administered by intravenous drip infusion for 48 hours. After the administration, the collected cancer graft and the skin specimen were frozen and stored in liquid nitrogen.
The same rat skin as that used in Example 3 was checked for the expression change of PD marker candidate genes through real-time PCR. The primers of the candidate genes in the rat are as shown below. For every primer and probe, a rat gene was used as the template. The probe was modified with FAM/TAMRA.

Assay [8] relates to PD marker candidate genes in HeLa-luc cancer graft. The assay is described as follows: Expression change of PD marker candidate genes in planted cancer, continuous administration to rat (Example 3). It is filed as in vivo, F344/N Jcl-rnu female nude rat. As to conditions: nude rat with HeLa-luc graft, intravenous drip infusion for 48 hours. Here is the method:
as §2
Next, the total RNA was isolated from the collected cancer graft and formed into cDNA, which was checked for the expression change of the PD marker candidate genes. In addition to 5 genes identified in culture cells, Aurora A (AurA) and Aurora B (AurB) were also investigated as candidate genes. The primer probe sets for Aurora A and B are as follows. For every primer and probe, a human gene was used as the template.

Where [9] appears, read: HeLa S3 cells, 8 hours and 24 hours.
Where [10] appears, read: HeLa S3 cells, expression admitted in the background with no compound addition.

Bounds are passed on as bounds.

With `O=C(c1cccc(Cl)c1F)N1CCN(Cc2cccc(Nc3nccs3)n2)CC1` [6-((4-(3-chloro-2-fluorobenzoyl)piperazin-1-yl)methyl)-N-thiazol-2-ylpyridin-2-amine], in assay [1], the “Histone H3 (Ser10) phosphorylation in flow cytometry” value is “could not take a large window”. Further, in assay [2] (HeLa S3 cells), the “concentration range in which Aurora B inhibition begins (phosphorylation of Aurora B again inhibited)” value is greater than 30 µM. Further, the “expression of phospho-Aurora B (Thr232)” value in assay [2] (HeLa S3 cells, 0-30000 nM, exposure 8 hours and 24 hours, FIG. 22) is reported as “increased dependently on the administration concentration”. Also, in assay [2] (setting [9]), the “concentration of phosphorylation depression of Aurora B (considered Aurora B inhibition)” value was no less than 30 µM and the “expression level of Aurora B” value is reported as “did not change so much”. For the same compound, in assay [2] (setting [10]), the “expression induction window of Plk1” value is “at most 3.5 times” and the “expression induction window of Survivin” value was “at most 3.5 times”. Also, the “ratio of phospho-Aurora B/Aurora B” value in assay [2] (exposure period of 8 hours) is reported as “at most 16 times”. Further, the “ratio of phospho-Aurora B/Aurora B” value in assay [2] (exposure period of 24 hours) is on record as “up to 10 times”. Further, in assay [3], the “concentration from which the proportion of the M-stage began to increase” value is given as “around 300 nM” and the “concentration up to which the M-stage was kept” value was “around 10 μM”.

For `O=C(c1cccc(F)c1F)N1CCN(Cc2cccc(Nc3nccs3)n2)CC1` [6-((4-(2,3-difluorobenzoyl)piperazin-1-yl)methyl)-N-thiazol-2-ylpyridin-2-amine], the “expression level of the PD marker candidate genes (BIRC5, KNTC2, PRC1, TACC3, DLG7)” value in assay [4] is given as “increased dependently on the Aurora A inhibitor concentration”. For the same compound, in assay [5], the “Aurora B expression” value is given as “expressed Aurora B to a high level even after 10 hours” and the “phospho-Aurora B (Thr232) expression” value is listed as “remarkably increased”. The “phospho-histone H3 (Ser28) induction by inhibitor” value in assay [6] was “concentration-dependent induction”.

Regarding `O=C(O)[C@]1(Cc2cccc(Nc3nccs3)n2)CC[C@@H](Oc2cccc(Cl)c2F)CC1` [trans-4-(3-chloro-2-fluorophenoxy)-1-((6-(1,3-thiazol-2-ylamino)pyridin-2-yl)methyl)cyclohexanecarboxylic acid], the “expression level of the candidate genes in rat skin” value in assay [7] is “significantly increased”.

For the compound `COc1cc2c(Nc3ccc(NC(=O)c4ccccc4)cc3)ncnc2cc1OCCCN1CCOCC1` [ZM477439], in assay [5], the “Aurora B expression” value is on record as “detected on the same level as that in the control” and the “phospho-Aurora B (Thr232) expression” value was “no phospho-Aurora B was detected at all”.

Consider `Cc1cc(Nc2cc(N3CCN(C)CC3)nc(Sc3ccc(NC(=O)C4CC4)cc3)n2)n[nH]1` [VX-680], for which, in assay [5], the “Aurora B expression” value is “detected on the same level as that in the control” and the “phospho-Aurora B (Thr232) expression” value was “no phospho-Aurora B was detected at all”. Also, the “phospho-histone H3 (Ser28) induction by inhibitor” value in assay [6] was “did not have a phosphorylation band at all”.

With `O=C(c1cccc(C(F)(F)F)c1F)N1CCN(Cc2cncc(Nc3cc[nH]n3)n2)CC1` [6-((4-(2-fluoro-3-(trifluoromethyl)benzoyl)piperazin-1-yl)methyl)-N-1H-pyrazol-3-ylpyrazin-2-amine], in assay [8], the “expression of BIRC5 in cancer graft” value is on record as “significantly increased”, the “expression of DLG7 in cancer graft” value is on record as “significantly increased” and the “peak of the expression change (dose)” value turned out to be 1 mpk. For the same compound, the “expression level of the PD marker candidate genes in cancer graft” value in assay [8] (FIGS. 11 and 12) is reported as “increased”.
